Measured values: patent publication US20250320496A1, “MODULATION OF ABCB11 GENE TRANSCRIPTION USING ANTISENSE OLIGONUCLEOTIDES TARGETING REGULATORY RNAS” (CAMP4 Therapeutics Corporation, priority 2022, published 2025)
Strand notation (5' to 3'): a small letter for the sugar, then the base; units joined by * are phosphorothioate-linked, units joined directly phosphodiester-linked; [ ] holds rarer units or linkages, { } end groups; capitals alone tell only the bases. e = 2'-O-(2-methoxyethyl) (MOE); l = locked nucleic acid (LNA); [5mC] = 5-methylcytosine; d = 2'-deoxy (DNA)

Test system: human ABCB11 mRNA
Experiment: ASO treatment of primary human hepatocytes (PHH), ABCB11 mRNA by RT-qPCR normalized to B2M
Format: cell-based
Conditions: primary human hepatocytes, 5 μM ASO, normalized to untreated PHHs (UNT)
How it was run: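 ABCB11 mRNA was quantified by Taqman RT-qPCR relative to B2M and expressed as fold over untreated cells. Cells were cryopreserved primary human hepatocytes given ASO in Matrigel-supplemented medium 4 h after plating, at 1.25, 2.5, 5 or 10 μM (5 μM for screening), and harvested after 72 hrs.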

Row | Substance | ABCB11 mRNA FC (5 μM ASO vs. UNT) [fold change]
1 | CO-7010 (antisense eT*eG*eT*eG*eG*eA*eT*eG*eT*eA*eG*eA*eT*eG*eA*eA*eT*eG*eG*e[5mC]*eA*eA*eG*eG) | 1.293
2 | CO-7011 (antisense eT*eG*eT*eG*eG*dA*dT*eG*dT*dA*eG*dA*dT*eG*dA*dA*eT*dG*dG*e[5mC]*eA*eA*eG*eG) | 1.284
3 | CO-7012 (antisense eT*eG*eT*eG*eG*dA*dT*lG*dT*dA*lG*dA*dT*lG*dA*dA*lT*dG*dG*e[5mC]*eA*eA*eG*eG) | 0.985
4 | CO-7013 (antisense eA*eG*eT*eG*eA*eG*dG*d[5mC]*dA*dT*d[5mC]*dA*dG*dG*dT*dA*eA*eG*eT*eT*e[5mC]*e[5mC]) | 0.997
5 | CO-7014 (antisense eA*eG*eT*eG*eA*eG*eG*e[5mC]*eA*eT*e[5mC]*eA*eG*eG*eT*eA*eA*eG*eT*eT*e[5mC]*e[5mC]) | 1.293
6 | CO-7015 (antisense eA*eG*eT*eG*eA*dG*dG*d[5mC]*eA*dT*d[5mC]*dA*dG*eG*dT*dA*dA*eG*eT*eT*e[5mC]*e[5mC]) | 1.257
7 | CO-7016 (antisense eA*eG*eT*eG*eA*lG*dG*d[5mC]*lA*dT*d[5mC]*dA*dG*lG*dT*dA*lA*eG*eT*eT*e[5mC]*e[5mC]) | 1.278
8 | CO-7017 (antisense eA*eA*eG*eT*eG*eA*eG*dG*d[5mC]*dA*dT*d[5mC]*dA*dG*dG*dT*dA*eA*eG*eT*eT*e[5mC]*e[5mC]*eT) | 1.182
9 | CO-7018 (antisense eA*eA*eG*eT*eG*eA*eG*eG*e[5mC]*eA*eT*e[5mC]*eA*eG*eG*eT*eA*eA*eG*eT*eT*e[5mC]*e[5mC]*eT) | 1.249
10 | CO-7019 (antisense eA*eA*eG*eT*eG*dA*dG*eG*d[5mC]*dA*eT*d[5mC]*dA*eG*dG*dT*eA*dA*dG*eT*eT*e[5mC]*e[5mC]*eT) | 1.284
11 | CO-7020 (antisense eA*eA*eG*eT*eG*dA*dG*lG*d[5mC]*dA*lT*d[5mC]*dA*lG*dG*dT*lA*dA*dG*eT*eT*e[5mC]*e[5mC]*eT) | 1.133
12 | CO-7022 (antisense eT*e[5mC]*eT*eG*eG*dA*dA*dA*dA*dT*dA*dA*dT*dG*d[5mC]*e[5mC]*eT*eT*eT*e[5mC]) | 1.224
13 | CO-7023 (antisense e[5mC]*eT*eT*eA*eT*e[5mC]*eT*eG*eG*eA*eA*eA*eA*eT*eA*eA*eT*eG*e[5mC]*e[5mC]) | 1.338
14 | CO-7024 (antisense eG*e[5mC]*eT*eT*eA*eT*e[5mC]*eT*eG*eG*eA*eA*eA*eA*eT*eA*eA*eT*eG*e[5mC]) | 1.415
15 | CO-7025 (antisense eA*eG*eT*eG*eA*eG*e[5mC]*eT*eT*eA*eT*e[5mC]*eT*eG*eG*eA*eA*eA*eA*eT) | 1.259
16 | CO-7026 (antisense eA*e[5mC]*eA*eG*eT*eG*eA*eG*e[5mC]*eT*eT*eA*eT*e[5mC]*eT*eG*eG*eA*eA*eA) | 1.158
17 | CO-7027 (antisense e[5mC]*eG*eA*e[5mC]*eA*eG*eT*eG*eA*eG*e[5mC]*eT*eT*eA*eT*e[5mC]*eT*eG*eG*eA) | 1.304
18 | CO-7028 (antisense eA*e[5mC]*e[5mC]*eG*eA*e[5mC]*eA*eG*eT*eG*eA*eG*e[5mC]*eT*eT*eA*eT*e[5mC]*eT*eG) | 1.49
19 | CO-7030 (antisense AGAATCGCTGTGGCAGTTAA; fully 2'-MOE, mixed PS/PO, 5-methylcytosine; listed as RNA; modified_base 1..20: mod_base = OTHER; note = Phosphorothioate linkage; note = 2'-O-(2-methoxyethyl) ribonucleotide; modified_base 6: mod_base = OTHER; note = 5-methyl cytidine; modified_base 8: mod_base) | 1.372
20 | CO-7031 (antisense eA*eA*eA*eG*eA*eA*eT*e[5mC]*eG*e[5mC]*eT*eG*eT*eG*eG*e[5mC]*eA*eG*eT*eT) | 1.212
21 | CO-7032 (antisense eA*e[5mC]*eA*eA*eA*eG*eA*eA*eT*e[5mC]*eG*e[5mC]*eT*eG*eT*eG*eG*e[5mC]*eA*eG) | 1.093
22 | CO-7033 (antisense eG*eA*eG*eA*e[5mC]*eA*eA*eA*eG*eA*eA*eT*e[5mC]*eG*e[5mC]*eT*eG*eT*eG*eG) | 1.316
23 | CO-7034 (antisense eT*eT*eA*eG*eA*eG*eA*e[5mC]*eA*eA*eA*eG*eA*eA*eT*e[5mC]*eG*e[5mC]*eT*eG) | 1.097
24 | CO-7035 (antisense e[5mC]*eA*eT*eT*eT*dA*dG*dA*dG*dA*d[5mC]*dA*dA*dA*dG*eA*eA*eT*e[5mC]*eG) | 1.047

Row | Substance | ABCB11 mRNA FC (5 μM ASO vs. UNT) [fold change]
25 | CO-7036 (antisense eG*eT*eA*e[5mC]*eA*eT*eT*eT*eA*eG*eA*eG*eA*e[5mC]*eA*eA*eA*eG*eA*eA) | 1.129
26 | CO-7037 (antisense e[5mC]*eT*eG*eT*eA*e[5mC]*eA*eT*eT*eT*eA*eG*eA*eG*eA*e[5mC]*eA*eA*eA*eG) | 1.136
27 | CO-7038 (antisense eA*eA*e[5mC]*eT*eG*eT*eA*e[5mC]*eA*eT*eT*eT*eA*eG*eA*eG*eA*e[5mC]*eA*eA) | 1.189
28 | CO-7040 (antisense eA*eA*eG*eA*eG*eG*eA*eA*eA*eG*eA*eA*e[5mC]*eT*eG*eG*e[5mC]*e[5mC]*eG*eG) | 1.267
29 | CO-7041 (antisense eG*eT*e[5mC]*eA*eA*eG*eA*eGeG*eA*eA*eA*eG*eA*eA*e[5mC]*eT*eG*eG*e[5mC]) | 1.15
30 | CO-7042 (antisense e[5mC]*eT*eT*eG*eG*eT*e[5mC]*eA*eA*eG*eA*eG*eG*eA*eA*eA*eG*eA*eA*e[5mC]) | 1.132
31 | CO-7043 (antisense eT*eT*eG*e[5mC]*eT*eT*eG*eG*eT*e[5mC]*eA*eA*eG*eA*eG*eG*eA*eA*eA*eG) | 1.1
32 | CO-7044 (antisense eT*eT*eT*eT*eG*e[5mC]*eT*eT*eG*eG*eT*e[5mC]*eA*eA*eG*eA*eG*eG*eA*eA) | 0.943
33 | CO-7045 (antisense eT*eG*eT*eT*eT*dT*dG*d[5mC]*dT*dT*dG*dG*dT*d[5mC]*dA*eA*eG*eA*eG*eG) | 1.112
34 | CO-7046 (antisense eT*eG*eT*eG*eT*eT*eT*eT*eG*e[5mC]*eT*eT*eG*eG*eT*e[5mC]*eA*eA*eG*eA) | 1.243
35 | CO-7047 (antisense eG*eA*eG*eT*eT*eG*eT*eG*eT*eT*eT*eT*eG*e[5mC]*eT*eT*eG*eG*eT*e[5mC]) | 1.175
36 | CO-7048 (antisense eT*eG*eG*eA*eG*eT*eT*eG*eT*eG*eT*eT*eT*eT*eG*e[5mC]*eT*eT*eG*eG) | 1.175
37 | CO-7050 (antisense eT*eT*eG*eG*eT*eT*e[5mC]*e[5mC]*e[5mC]*e[5mC]*e[5mC]*eT*eG*e[5mC]*eT*eG*eT*eG*e[5mC]*eT) | 1.026
38 | CO-7051 (antisense eA*e[5mC]*e[5mC]*eT*eT*eG*eG*eT*eT*e[5mC]*e[5mC]*e[5mC]*e[5mC]*e[5mC]*eT*eG*e[5mC]*eT*eG*eT) | 1.201
39 | CO-7052 (antisense eT*e[5mC]*eA*e[5mC]*e[5mC]*eT*eT*eG*eG*eT*eT*e[5mC]*e[5mC]*e[5mC]*e[5mC]*e[5mC]*eT*eG*e[5mC]*eT) | 1.046
40 | CO-7053 (antisense e[5mC]*e[5mC]*eT*e[5mC]*eA*e[5mC]*e[5mC]*eT*eT*eG*eG*eT*eT*e[5mC]*e[5mC]*e[5mC]*e[5mC]*e[5mC]*eT*eG) | 1.145
41 | CO-7054 (antisense eA*e[5mC]*e[5mC]*e[5mC]*e[5mC]*d[5mC]*d[5mC]*dT*d[5mC]*dA*d[5mC]*d[5mC]*dT*dT*dG*eG*eT*eT*e[5mC]*e[5mC]) | 1.323
42 | CO-7055 (antisense eT*e[5mC]*eA*e[5mC]*e[5mC]*e[5mC]*e[5mC]*e[5mC]*e[5mC]eT*e[5mC]*eA*e[5mC]*e[5mC]*eT*eT*eG*eG*eT*eT) | 1.498
43 | CO-7056 (antisense eT*eG*e[5mC]*eT*e[5mC]*eA*e[5mC]*e[5mC]*e[5mC]*e[5mC]*e[5mC]*e[5mC]*eT*e[5mC]*eA*e[5mC]*e[5mC]*eT*eT*eG) | 1.491
44 | CO-7057 (antisense eA*e[5mC]*eT*eG*e[5mC]*eT*e[5mC]*eA*e[5mC]*e[5mC]*e[5mC]*e[5mC]*e[5mC]*e[5mC]*eT*e[5mC]*eA*e[5mC]*e[5mC]*eT) | 1.145
45 | CO-7058 (antisense eT*e[5mC]*eT*eG*eG*lA*dA*dA*lA*dT*dA*lA*dT*dG*l[5mC]*e[5mC]*eT*eT*eT*e[5mC]) | 1.052
46 | CO-7059 (eT*e[5mC]*eT*lG*eG*dA*dA*lA*dA*dT*dA*lA*dT*dG*d[5mC]*l[5mC]*eT*eT*eT*e[5mC]; antisense) | 1.023
47 | CO-7060 (eT*e[5mC]*eT*eG*lG*dA*dA*dA*lA*dT*dA*dA*lT*dG*d[5mC]*e[5mC]*lT*eT*eT*e[5mC]; antisense) | 1.17
48 | CO-7061 (eT*e[5mC]*eT*lG*eG*lA*eA*lA*eA*lT*eA*lA*eT*lG*e[5mC]*l[5mC]*eT*lT*eT*e[5mC]; antisense) | 1.261
